{
  "source": "patent US11337976B2",
  "about": "(Plexxikon Inc., priority 2011, dated 2022)",
  "key": {"[1]": {"test_system": "A375 melanoma cells (B-Raf V600E mutation)", "test": "A375 (A375_P-ERK) cell activity / cell growth inhibition assay", "format": "cell-based, human", "settings": "A375 cells (text: A375_P-ERK)"}, "B-Raf V600E": {"molecular_target": "B-Raf V600E (Homo sapiens (Human), UniProt P15056, V600E)", "sequence (P15056 whole entry V600E)": "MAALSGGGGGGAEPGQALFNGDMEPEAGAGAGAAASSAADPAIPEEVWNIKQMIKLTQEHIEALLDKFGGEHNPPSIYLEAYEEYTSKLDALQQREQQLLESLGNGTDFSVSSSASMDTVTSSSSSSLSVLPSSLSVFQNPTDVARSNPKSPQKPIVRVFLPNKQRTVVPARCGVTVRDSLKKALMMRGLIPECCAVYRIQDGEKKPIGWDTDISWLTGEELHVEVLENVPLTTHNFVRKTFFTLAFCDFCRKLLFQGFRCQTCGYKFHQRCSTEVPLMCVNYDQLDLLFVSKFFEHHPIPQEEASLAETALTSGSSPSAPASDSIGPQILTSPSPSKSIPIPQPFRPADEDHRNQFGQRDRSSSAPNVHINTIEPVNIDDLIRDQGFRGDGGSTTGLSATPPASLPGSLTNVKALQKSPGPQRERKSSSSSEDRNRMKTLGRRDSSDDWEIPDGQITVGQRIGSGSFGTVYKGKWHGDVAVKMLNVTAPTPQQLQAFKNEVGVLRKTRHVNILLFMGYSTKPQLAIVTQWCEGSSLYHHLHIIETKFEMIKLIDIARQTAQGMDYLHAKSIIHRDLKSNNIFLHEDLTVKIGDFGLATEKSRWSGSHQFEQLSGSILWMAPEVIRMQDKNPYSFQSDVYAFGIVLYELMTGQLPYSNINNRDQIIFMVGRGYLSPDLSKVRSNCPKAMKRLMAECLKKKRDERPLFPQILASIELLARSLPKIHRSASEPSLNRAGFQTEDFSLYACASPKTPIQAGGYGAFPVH", "test": "B-Raf V600E kinase activity biochemical assay (AlphaScreen, biotin-MEK1 substrate)", "settings": "100 μM ATP", "protocol": "Assays for biochemical and cell based activity are known in the art, for example, as described in PCT publication WO 2007/002433, the disclosure of which is hereby incorporated by reference as it relates to such assays. For example, the biochemical activity IC50 values are determined with respect to inhibition of B-Raf V600E kinase activity or p-Erk kinase activity, where inhibition of phosphorylation of a peptide substrate is measured as a function of compound concentration. Compounds to be tested are diluted in dimethyl sulfoxide to a concentration of 0.1 mM. These are serially diluted 15 μL into 30 μL of dimethyl sulfoxide seven times in 96 well plates for a total of 8 dilution points, and for each dilution point 1 μL is added to a well of an assay plate. Plates are prepared such that each well in a 384 well plate contains 1 μL of compound in 10 μL volume with 0.1 ng Raf enzyme (i.e. any of B-Raf, c-Raf-1 or B-Raf V600E, Upstate Biotechnology or preparead by methods known to one of skill in the art), 50 mM HEPES, pH 7.0, 50 mM NaCl, 2 mM MgCl2, 1 mM MnCl2, 0.01% Tween-20, 1 mM DTT, and 100 nM biotin-MEK1 as substrate. The reaction is started with addition of 10 μL of 200 μM ATP (i.e. final 100 μM ATP). […] The plates are incubated for 3 hours at room temperature and read on Envision reader (Perkin Elmer). […]"}, "[2]": {"test_system": "IPC-298 cells, phosphorylated ERK", "test": "IPC-298_P-ERK cell activation assay (phosphorylated ERK, AlphaScreen)", "format": "cell-based, human", "settings": "P-ERK activation, one hour treatment", "protocol": "B9 is a squamous cell carcinoma cell line expressing activated HRAS that was isolated from a DMBA/TPA-induced mouse model of skin carcinogenesis (Stoler, et al. The Journal of Cell Biology, 1993, 122(5), 1103-17). IPC-298 is a human melanoma cell line that expresses activated NRAS (Aubert, et al. International Journal of Cancer, 1993, 54(5), 784-92). To determine whether compounds induce phosphorylated ERK and MEK, cells are plated in a 96-well dish and treated with an 8-point titration of compound for one hour at 37° C. The media is then removed and the cells are incubated with lysis buffer containing protease and phosphatase inhibitors. Phosphorylated ERK and MEK in the resulting lysates is detected using AlphaScreen™ technology. To detect phosphorylated ERK, cell lysates are incubated with streptavidin-coated donor beads, anti-mouse IgG acceptor beads, a biotinylated anti-ERK1/2 rabbit antibody, and a mouse antibody that recognizes ERK1/2 only when it is phosphorylated on Thr202 and Tyr204. […] When ERK is phosphorylated, both antibodies can bind the same protein, bringing the donor and acceptor beads into close proximity, producing a signal that can be measured at 580 nm. MEK phosphorylation is detected using a similar approach, only with antibodies directed against total MEK1/2 and MEK1/2 that is phosphorylated at Ser217 and Ser221."}, "[3]": {"test_system": "COLO205 colon adenocarcinoma cells (B-Raf V600E mutation)", "test": "COLO205 cell growth inhibition assay (ATPlite)", "format": "cell-based, human", "protocol": "Compounds are assessed in a variety of cell based assays. For example human cell lines with B-RafV600E mutation (A375 melanoma, SKMEL3 melanoma, and COLO205 colon adenocarcinoma), as well as tumorigenic cell lines with wild-type B-RAF (SW620 colon adenocarcinoma) or with Ras mutations (SKMEL2 melanoma and IPC298 melanoma).\nOn day 1, cells are counted, then centrifuged in a conical tube for 5 minutes at 1000 rpm.\nOn day 2, compound at a maximum concentration of 5 mM is serially diluted 1:3 (e.g. 10 μL with 30 μL dimethyl sulfoxide) for a total of 8 point titration with DMSO as a control. A 1 μL aliquot of each dilution point and control is added to 249 μL growth media and 50 μL is added to a well containing cells, providing 10 μM compound at the maximum concentration point. The cells are incubated for 3 days at 37° C. in 5% CO2.\nATPlite is added 25 μL to each well, shake for 2 minutes, and the cells are incubated at room temperature for 10 minutes, then luminescence is read on Safire reader. The measured luminescence correlates directly with cell number, such that the reading as a function of compound concentration is used to determine the IC50 value."}},
  "data": [
    {"smiles": "CCN(C)S(=O)(=O)Nc1ccc(F)c(C(=O)c2c[nH]c3ncc(-c4ccc(Cl)cc4)cc23)c1F", "note": "[P-0013]", "values": [
      {"measurement": "IC50", "setting": "[1]; Homo sapiens, A-375", "value": "< 1", "unit": "µM"},
      {"measurement": "IC50", "setting": "B-Raf V600E", "value": "< 0.1", "unit": "µM"}
    ]},
    {"smiles": "O=C(c1c(F)ccc(NS(=O)(=O)N2CCCC2)c1F)c1c[nH]c2ncc(I)cc12", "note": "[P-0024]", "values": [
      {"measurement": "IC50", "setting": "[1]", "value": "< 1", "unit": "µM"},
      {"measurement": "EC50", "setting": "[2]", "value": "> 10", "unit": "µM"},
      {"measurement": "IC50", "setting": "[3]", "value": "> 1", "unit": "µM"}
    ]}
  ]
}
